The values below are quoted from earlier work in patent US6518456B1, “Process for the production of 1-(aminomethyl)-cyclohexyl-acetic acid in pure form” (Procos S.p.A., priority 2001, dated 2003).

The term LD50 denotes the dose at which mortality reaches 50%.

For this data set the following is noted: extremely low toxicity; species and route not given.

Turning to `NCC1(CC(=O)O)CCCCC1` [Gabapentin, 1-(aminomethyl)cyclohexyl-acetic acid], the LD50 was over 8000 mg/kg.
